Test results published in patent publication EP3852878B1, “DICYCLANIL SALT WITH DODECYLBENZENESULFONATE AND USE OF SUCH A SALT IN COMBATING PARASITES” (ICB Pharma Spólka Jawna, priority 2018, dated 2020).

Assays:
[1] = Comparative solubility tests in water (10% aqueous dispersion mixed, filtered, dicyclanil determined in the filtrate by HPLC); type: physicochemical; details: laboratory mixer, 20 °C
Method: To document the unexpectedly low water solubility of the present salt, i.e. dicyclanil dodecylbenzenesulfonate, comparative solubility tests were carried out after 4 and 24 hours of mixing of 10% aqueous dispersion of the present salt, as well as free dicyclanil alone, in a laboratory mixer at 20 °C, after which the sample was filtered and the free/bound dicyclanil was determined in a filtrate by a HPLC method.

[2] = cited from earlier work

Molecule	Solubility in water after 4 h of mixing [1]	Solubility in water after 24 h of mixing ([1]; 24 h)	solubility in water ([2]; at 20 °C)	solubility ([2]; in water, known dicyclanil salt)
4,6-diamino-2-cyclopropylaminopyrimidine-5-carbonitrile dodecylbenzenesulfonate	0.0490%	0.0495%		
N#Cc1c(N)nc(NC2CC2)nc1N [Technical dicyclanil TC 99.0%, 4,6-diamino-2-cyolopropylaminopyrimidine-5-carbonitrile]	0.312%		approximately 0.3 % by weight	
CS(=O)(=O)O.N#Cc1c(N)nc(NC2CC2)nc1N [salt with methanesulfonic acid]				> 5%
